From patent publication US8268803B2, “5, 6-ring annulated indole derivatives and use thereof” (Merck Sharp & Dohme Corp., priority 2006, dated 2012)

How the values were obtained:
[1] = target: T1, HCV NS5B polymerase (NS5BΔCT21, from HCV-Con 1 isolate, genotype 1b) (Hepatitis C virus genotype 1b, UniProt Q9WMX2); test: HCV NS5B Polymerase Inhibition Assay; format: biochemical; settings: incorporation of radiolabeled CTP, 22° C. for 2 hours
T1 construct: A soluble C-terminal 21-amino acid truncated NS5B enzyme form; polyhistidine (C); made in house; host or cells: Escherichia coli
Description: A chemically synthesized 75-mer version, designated DCoH75, whose sequence matches the 3′-end of D-RNA, and DCoH75ddC, where the 3′-terminal cytidine of DCoH75 is replaced by dideoxycytidine, were used for assaying the NS5B enzyme activity as described in Ferrari et al., 12th International Symposium on HCV and Related Viruses, P-306 (2005). The sequence of the template RNA was: 5′-UGUGCCGGUCUUUCUGAACGGGAUAUAAACCUGGCCAGCUUCAUCGAACAAGUUGCCGUGUCUAUGACAUAGAUC-3′ (SEQ ID NO: 1). A soluble C-terminal 21-amino acid truncated NS5B enzyme form (NS5BΔCT21, from HCV-Con 1 isolate, genotype 1b, Genbank accession number AJ238799) was produced and purified from Escherichia coli as C-terminal polyhistidine-tagged fusion protein as described in Ferrari et al., J. Virol. 73:1649-1654 (1999). A typical assay contained 20 mM Hepes pH 7.3, 10 mM MgCl2, 60 mM NaCl, 100 μg/ml BSA, 20 units/ml RNasin, 7.5 mM DTT, 0.1 μm ATP/GTP/UTP, 0.026 μM CTP, 0.25 mM GAU, 0.03 μM RNA template, 20 μCi/ml [^33P]-CTP, 2% DMSO, and 30 or 150 nM NS5B enzyme. Reactions were incubated at 22° C. for 2 hours, then stopped by adding 150 mM EDTA, washed in DE81 filter plate in 0.5M di-basic sodium phosphate buffer, pH 7.0, and counted using Packard TopCount after the addition of scintillation cocktail. Polynucleotide synthesis was monitored by the incorporation of radiolabeled CTP. The effect of the Compounds of Formula (I) on the polymerase activity was evaluated by adding various concentrations of a Compound of Formula (I), typically in 10 serial 2-fold dilutions, to the assay mixture. The starting concentrations ranged from 200 μM to 1 μM. An IC50 value for the inhibitor, defined as the compound concentration that provides 50% inhibition of polymerase activity, was determined by fitting the cpm data to the Hill equation Y=100/(1+10^((Log IC50−X)*HillSlope)), where X is the logarithm of compound concentration, and Y is the % inhibition. Ferrari et al., 12th International Symposium on HCV and Related Viruses, P-306 (2005) described in detail this assay procedure. It should be noted that such an assay as described is exemplary and not intended to limit the scope of the invention. The skilled practitioner can appreciate that modifications including but not limited to RNA template, primer, nucleotides, NS5B polymerase form, buffer composition, can be made to develop similar assays that yield the same result for the efficacy of the compounds and compositions described in the invention.
NS5B polymerase inhibition data for selected Compounds of Formula (I) is provided below in Table 2, wherein the compound numbers correspond to the compound numbering set forth in the above specification.

[2] = tested on: HCV replicon cells (replicon RNA level); test: Cell-Based HCV Replicon Assay; settings: Hepatitis C virus, 72 h; replicon RNA level by real time PCR (Taqman), cells harvested on day 3
Description: To measure cell-based anti-HCV activity of the a Compound of Formula (I), replicon cells were seeded at 5000 cells/well in 96-well collagen I-coated Nunc plates in the presence of the Compound of Formula (I). Various concentrations of a Compound of Formula (I), typically in 10 serial 2-fold dilutions, were added to the assay mixture, with the starting concentration ranging from 250 μM to 1 μM. The final concentration of DMSO was 0.5%, fetal bovine serum was 5%, in the assay media. Cells were harvested on day 3 by the addition of 1× cell lysis buffer (Ambion cat #8721). The replicon RNA level was measured using real time PCR (Taqman assay). The amplicon was located in 5B. The PCR primers were: 5B.2F, ATGGACAGGCGCCCTGA (SEQ ID NO: 2); 5B.2R, […] (SEQ ID NO: 3); the probe sequence was FAM-labeled CACGCCATGCGCTGCGG (SEQ ID NO: 4). GAPDH RNA was used as endogenous control and was amplified in the same reaction as NS5B (multiplex PCR) using primers and VIC-labeled probe recommended by the manufacturer (PE Applied Biosystem). The real-time RT-PCR reactions were run on ABI PRISM 7900HT Sequence Detection System using the following program: 48° C. for 30 min, 95° C. for 10 min, 40 cycles of 95° C. for 15 sec, 60° C. for 1 min. The ΔCT values (CT5B-CTGAPDH) were plotted against the concentration of test compound and fitted to the sigmoid dose-response model using XLfit4 (MDL). EC50 was defined as the concentration of inhibitor necessary to achieve ΔCT=1 over the projected baseline; EC90 the concentration necessary to achieve ΔCT=3.2 over the baseline. Alternatively, to quantitate the absolute amount of replicon RNA, a standard curve was established by including serially diluted T7 transcripts of replicon RNA in the Taqman assay. All Taqman reagents were from PE Applied Biosystems. Such an assay procedure was described in detail in e.g. Malcolm et al., Antimicrobial Agents and Chemotherapy 50: 1013-1020 (2006).
HCV Replicon assay data for selected Compounds of Formula (I) is provided below in Table 3, wherein the compound numbers correspond to the compound numbering set forth in the above specification. The data is designated as follows: “A” for EC50 values less than 1.0 micromolar (μM), “B” for EC50 values between 1.0 and 5.0 μM and “C” for EC50 values greater than 5.0 μM.

Row | Structure (SMILES) | IC50 [1] [nM] | EC50 [2] [nM]
1 | CS(=O)(=O)NC(=O)c1c(-c2ccc[nH]c2=O)c2cc3c(cc2n1Cc1cccc(OCc2ccccc2)c1)CCC3 [Compound 10] | > 100 | 
2 | CS(=O)(=O)NC(=O)c1c(-c2ccc[nH]c2=O)c2cc3c(cc2n1Cc1ccc(O)cc1)CCC3 [Compound 2] | < 25 | 1000 to 5000
3 | CS(=O)(=O)NC(=O)c1c(-c2ccc[nH]c2=O)c2cc3c(cc2n1Cc1ccccc1O)CCC3 [Compound 4] | 25 to 100 | 1000 to 5000
4 | CS(=O)(=O)NC(=O)c1c(-c2ccc[nH]c2=O)c2cc3c(cc2n1Cc1ccc(F)cc1F)CCC3 [Compound 5] | 25 to 100 | 1000 to 5000
5 | CS(=O)(=O)NC(=O)c1c(-c2ccc[nH]c2=O)c2cc3c(cc2n1Cc1ccccc1OCc1ccccc1)CCC3 [Compound 9] | > 100 | > 5000
6 | CS(=O)(=O)NC(=O)c1c(-c2ccc[nH]c2=O)c2cc3c(cc2n1Cc1cccc(O)c1)CCC3 [Compound 6] | 25 to 100 | 1000 to 5000
7 | CS(=O)(=O)NC(=O)c1c(-c2ccc[nH]c2=O)c2cc3scnc3cc2n1Cc1ccnc(N)c1 [Compound 12] | > 100 | > 5000
8 | Nc1cc(Cn2c(C(=O)O)c(-c3ccc[nH]c3=O)c3cc4scnc4cc32)ccn1 [Compound 11] | > 100 | 
9 | CS(=O)(=O)NC(=O)c1c(-c2ccc[nH]c2=O)c2cc3c(cc2n1Cc1cc(F)ccc1F)CCC3 [Compound 1] | < 25 | < 1000
10 | CS(=O)(=O)NC(=O)c1c(-c2ccc[nH]c2=O)c2cc3c(cc2n1Cc1ccc(OCc2ccccc2)cc1)CCC3 [Compound 8] | > 100 | > 5000
11 | O=C(O)c1c(-c2ccc[nH]c2=O)c2cc3c(cc2n1Cc1cc(F)ccc1F)CCC3 [Compound 3] | < 25 | 1000 to 5000
